Results taken from patent US4820715A, “Anti-emetic quinuclidinyl benzamides” (Bristol-Myers Company, priority 1987, dated 1989).
Structures can show the parent of a compound that is named as a salt. Where two headings read alike, the source gives them in different places.

What was measured:
[1] = tested on: Apomorphine-Induced Emesis; assay: Antagonism of Apomorphine-Induced Emesis in Dogs; format: in vivo, beagle dogs; conditions: Canis lupus familiaris, sc, read-out: Antagonism of Apomorphine-Induced Emesis in the Dog ED50
Protocol: Unfasted beagle dogs of both sexes were used as test subjects. Test compounds and apomorphine were each administered subcutaneously as aqueous solutions, with the test compound being administered 30 minutes prior to the administration of the apormorphine.
Apomorphine was administered at a dose of 0.3 mg/kg. […] All tests were run in at least two dogs.

Cisplatin-Induced Emesis = assay: Antagonism of Cisplatin-Induced Emesis in the Ferret; format: in vivo, Fitch ferrets; conditions: Mustela putorius, iv, 4 h, read-out: Antagonism of Cisplatin-Induced Emesis in the Ferret, % Protection
Excerpt: The ventral and dorsal area of the neck is shaved and a 3 cm incision is made. The left jugular vein is exposed and ligated with a silk suture at the cephalic end. The indwelling catheter is constructed of Silastic tubing 18 cm in length (0.020 inch I.D.×0.037 inch O.D.) with a 2 cm polyethylene sleeve (0.045 inch I.D.×0.062 inch O.D.) filled with heparin (1000 units/ml) and sealed at the exposed end with a 23 gauge×1 inch needle crimped at both ends. A small cut is made in the jugular and the catheter inserted, allowing the free end to be delivered through a 13 gauge×5 cm trochar under the skin and attached to the nape of the neck with a silk suture. The ferrets are housed in individual cages and allowed 2-4 days recovery before testing. On the test day, the test compounds were administered i.v. […] The cisplatin solution was prepared by adding 70° C. physiological saline, stirring and sonicating until dissolved. The resulting solution (4 mg/ml) was maintained at 40° C. and administered i.v. ([…]) via the catheter. Following administration of cisplatin, the ferrets were observed continuously for four hours and emetic episodes recorded. Two or more emetic episodes within a one-minutes period was considered as a single episode. The ferrets were euthanized with T-61 i.v. at the termination of the experiment, and proper placement of the catheter was verified.

[2] = tested on: field-stimulated guinea pig ileum; assay: Gastrokinetic Activity: contraction of field-stimulated guinea pig ileum preparations; set-up: species or system guinea pig (Hartley); conditions: Cavia porcellus
Protocol: This activity is considered to be correlated with gastrokinetic (prokinetic) activity in vivo, i.e. enhancement of gastric motility and gastric emptying.
Normal, male guinea pigs (Hartley; Charles River) weighing […] are sacrificed by cervical dislocation. The terminal portion of the ileum was removed after discarding a 10 cm segment nearest to the ileocecal junction. The strips, 3-4 cm in length, were mounted in a 20 ml organ bath containing Krebs physiological buffer solution. The buffer was bubbled with 95% O2 -5% CO2 and kept at 37° C. The resting tension was adjusted to 1.0 g, and the tissues were equilibrated without stimulation for 15 minutes. For electrical stimulation, a platinum wire (cathode) was threaded up through the lumen and another platinum wire (anode) was attached to the glass rod that suspended the muscle. Tissues were stimulated coaxially at 1.5 times the voltage necessary to produce maximum twitch height, with single pulses, 0.5 msec in duration, delivered once every 10 seconds. After the 15 minute equilibration period (without stimulation), the stimulator (Grass S88 Stimulator) was turned on and the tissues were allowed to stabilize for approximately 1 hour, or until the twitch height remained constant, with washes every 20 minutes.

[3] = s.c. 30 minutes prior to apomorphine 0.3 mg/kg, dog

| SMILES | ED50 [1, 3] | inhibition in vivo at 3 mg/kg (Cisplatin-Induced Emesis; 3 mg/kg, i.v. × 2) | other results |
| --- | --- | --- | --- |
| CCN(CC)CCNC(=O)c1cc(Cl)c(N)cc1OC(C)C(C)O (mixture of isomers) [Example 41, 4-Amino-5-chloro-N-[2-(diethylamino)ethyl]-2-[(2-hydroxy)but-3-yl]oxybenzamide (mixture of threo and erythro isomers)] | > 3 mg/kg | 81% | – |
| O=c1[nH]c2ccccc2n1CCCN1CCC(n2c(=O)[nH]c3cc(Cl)ccc32)CC1 [Domperidone, reference compound] | – | – | ED50 [1]: 0.2 mg/kg; inhibition in vivo at 3 mg/kg (Cisplatin-Induced Emesis): 50% |
| CCN(CC)CCNC(=O)c1cc(Cl)c(N)cc1OCCOC [Example 1, 4-Amino-5-chloro-N-[2-(diethylamino)ethyl]-2-(2-methoxyethoxy)benzamide] | > 3 mg/kg | 76% | – |
| CCN(CC)CCNC(=O)c1cc(Cl)c(N)cc1OCCO [Example 2, 4-Amino-5-chloro-N-[2-(diethylamino)ethyl]-2-(2-hydroxyethoxy)benzamide] | > 3 mg/kg | 68% | – |
| CCN(CC)CCNC(=O)c1cc(Cl)c(N)cc1OCC(OC)OC [Example 3, 4-Amino-5-chloro-N-[2-(diethylamino)ethyl]-2-(2,2-dimethoxyethoxy)benzamide] | > 3 mg/kg | 82% | – |
| CCN(CC)CCNC(=O)c1cc(Cl)c(N)cc1OCC(C)=O [Example 5, 4-Amino-5-chloro-N-[2-(diethylamino)ethyl]-2-(2-propanon-1-yl)oxybenzamide] | > 3 mg/kg | 90% | – |
| CCN(CC)CCNC(=O)c1cc(Cl)c(N)cc1OCC(=O)c1ccccc1 [Example 6, 4-Amino-2-(2-phenyl-2-oxoethoxy)-5-chloro-N-[2-(diethylamino)ethyl]benzamid] | > 3 mg/kg | 100% | – |
| CCN(CC)CCNC(=O)c1cc(Cl)c(N)cc1OC(C)C(C)=O (stereo not drawn) [Example 7, 4-Amino-2-(butan-2-on-3-yl)oxy-5-chloro-N-[2-(diethylamino)ethyl]benzamide] | > 3 mg/kg | 95% | – |
| CCN(CC)CCNC(=O)c1cc(Cl)c(N)cc1OC1CCCCC1=O (stereo not drawn) [Example 9, 4-Amino-5-chloro-2-(cyclohexanon-2-yl)oxy-N-[2-(diethylamino)ethyl]benzamide] | > 3 mg/kg | 100% | – |
| CCN(CC)CCNC(=O)c1cc(Cl)c(N)cc1OCC(C)=NO [Example 10, 4-Amino-5-chloro-N-[2-(diethylamino)ethyl]-2-[(2-hydroxyimino)propan-1-yl]oxybenzamide] | > 3 mg/kg | 100% | – |
| CCN(CC)CCNC(=O)c1cc(Cl)c(N)cc1OCC(C)O (stereo not drawn) [Example 12, 4-Amino-5-chloro-N-[2-(diethylamino)ethyl]-2-(2-hydroxypropan-1-yl)oxybenzamide] | > 3 mg/kg | 86% | – |
| CCN(CC)CCNC(=O)c1cc(Cl)c(N)cc1OCC#N [Example 13, 4-Amino-5-chloro-2-cyanomethoxy-N-[2-(diethylamino)ethyl]benzamide] | > 3 mg/kg | 90% | – |
| CCN(CC)CCNC(=O)c1cc(Cl)c(N)cc1OCC(=O)OC [Example 15, 4-Amino-5-chloro-N-[2-(diethylamino)ethyl]-2-(2-methoxy-2-oxoethoxy)benzamide] | > 3 mg/kg | 30% | – |
| CN(C)CCNC(=O)c1cc(Cl)c(N)cc1O [Example 17, 4-Amino-5-chloro-N-[2-(dimethylamino)ethyl]-2-hydroxybenzamide] | – | – | activation at 10 µM ([2]; at 10 μM, read-out: Average % Maximum Increase): 41%; EC30 ([2]; effective concentration30, read-out: EC30 (95% C.L.)): 5.4 µM; EC50 ([2]; effective concentration50, read-out: EC50 (95% C.L.)): 15 µM; minimal effective concentration ([2]; read-out: Minimum Effective Concentration): 0.3 µM |
| CCN(CC)CCNC(=O)c1cc(Cl)c(N)cc1OCC1COC(C)(C)O1 (stereo not drawn) [Example 18, 4-Amino-5-chloro-N-[2-(diethylamino)ethyl]-2-(2,2-dimethyl-1,3-dioxalan-4-yl)methoxybenzamide] | > 3 mg/kg | 72% | – |
| C=CCC(Oc1cc(N)c(Cl)cc1C(=O)NCCN(CC)CC)C(C)=O (stereo not drawn) [Example 24, 4-Amino-5-chloro-N-[2-(diethylamino)ethyl]-2-(5-hexan-2-on-3-yl)oxybenzamide hydrochloride] | > 3 mg/kg | 67% | – |
| CCC(Oc1cc(N)c(Cl)cc1C(=O)NCCN(CC)CC)C(C)=O (stereo not drawn) [Example 25, 4-Amino-5-chloro-N-[2-(diethylamino)ethyl]-2-(pentan-2-on-3-yl)oxybenzamide] | > 3 mg/kg | – | inhibition in vivo at 1 mg/kg (Cisplatin-Induced Emesis; i.v. × 2): 58% |
| CCC(=O)COc1cc(N)c(Cl)cc1C(=O)NCCN(CC)CC [Example 26, 4-Amino-2-(2-butanon-1-yl)oxy-5-chloro-N-[2-(diethylamino)-ethyl]benzamide] | > 3 mg/kg | 90% | – |
| CCCC(=O)COc1cc(N)c(Cl)cc1C(=O)NCCN(CC)CC [Example 27, 4-Amino-5-chloro-N-[2-(diethylamino)ethyl]-2-(pentan-2-on-1-yl)oxybenzamide] | > 3 mg/kg | – | inhibition in vivo at 1 mg/kg (Cisplatin-Induced Emesis; i.v. × 2): 90% |
| CCC(=O)C(C)Oc1cc(N)c(Cl)cc1C(=O)NCCN(CC)CC.Cl (stereo not drawn) [Example 28, 4-Amino-5-chloro-2-(pentan-3-on-2-yl)oxy-N-(2-diethylaminoethyl)benzamide hydrochloride] | > 3 mg/kg | – | inhibition in vivo at 1 mg/kg (Cisplatin-Induced Emesis; i.v. × 2): 82% |
| CCN(CC)CCNC(=O)c1cc(Cl)c(N)cc1OCC(=O)C(C)C [Example 29, 4-Amino-5-chloro-N-[2-(diethylamino)ethyl]-2-[(3-methyl)-butan-2-on-1-yl]oxybenzamide] | > 3 mg/kg | – | inhibition in vivo at 1 mg/kg (Cisplatin-Induced Emesis; i.v. × 2): 44% |
| CCN(CC)CCNC(=O)c1cc(Cl)c(N)cc1OCC(=O)Cc1ccccc1 [Example 30, 4-Amino-5-chloro-N-[2-(diethylamino)ethyl]-2-(3-phenyl-2-propanon-1-yl)oxybenzamide] | > 3 mg/kg | 100% | – |
| CCN(CC)CCNC(=O)c1cc(Cl)c(N)cc1OC(C)(C)C(C)=O.O [Example 31, 4-Amino-5-chloro-N-[2-(diethylamino)ethyl]-2-[(3-methyl)butan-2-on-3-yl]oxybenzamide monohydrate] | > 3 mg/kg | – | inhibition in vivo at 1 mg/kg (Cisplatin-Induced Emesis; i.v. × 2): 67% |
| CCN(CC)CCNC(=O)c1cc(Cl)c(N)cc1OCC(O)Cc1ccccc1 (stereo not drawn) [Example 33, 4-Amino-5-chloro-N-[2-(diethylamino)ethyl]-2-[2-(2-hydroxy-3-phenylpropyl)]oxybenzamide] | > 3 mg/kg | – | inhibition in vivo at 1 mg/kg (Cisplatin-Induced Emesis; i.v. × 2): 54% |
| CCN(CC)CCNC(=O)c1cc(Cl)c(N)cc1OCC1OCCO1 [Example 43] | > 3 mg/kg | 67% | – |
| CCN(CC)CCNC(=O)c1cc(Cl)c(N)cc1OCc1ccccn1 [Example 45, 4-Amino-5-chloro-N-[2-(diethylamino)ethyl]-2-(2-pyridinomethyl)oxybenzamide] | > 3 mg/kg | 80% | – |
| CCN(CC)CCNC(=O)c1cc(Cl)c(N)cc1OCCOCCOC [Example 46, 4-Amino-5-chloro-N-[2-(diethylamino)ethyl]-2-(2-methoxyethoxyethyl)oxybenzamide] | > 3 mg/kg | 76% | – |
| CCN(CC)CCNC(=O)c1cc(Cl)c(N)cc1OCC(=O)c1cccs1 [Example 52, 4-Amino-5-chloro-N-[2-(diethylamino)ethyl]-2-(2-thienoylmethoxy)benzamide] | > 3 mg/kg | 95% | – |
| CCN(CC)CCNC(=O)c1cc(Cl)c(N)cc1OCCC1(C)OCCO1 [Example 54] | > 3 mg/kg | 81% | – |
